Laboratory results taken from article PMC7616177, “From structure to clinic: Design of a muscarinic M1 receptor agonist with the potential to treat Alzheimer’s disease” (Cell, 2021).
pEC50, pKi: −log10 of the molar value. Read-outs that look alike come from different tables or passages of the source.

What was measured:
[1] = target: T1, human M1 receptor (Homo sapiens, UniProt P11229); test: [3H]-NMS equilibrium radioligand binding, M1
T1 construct: expressed in transfected cells
T1 sequence (P11229 1-460): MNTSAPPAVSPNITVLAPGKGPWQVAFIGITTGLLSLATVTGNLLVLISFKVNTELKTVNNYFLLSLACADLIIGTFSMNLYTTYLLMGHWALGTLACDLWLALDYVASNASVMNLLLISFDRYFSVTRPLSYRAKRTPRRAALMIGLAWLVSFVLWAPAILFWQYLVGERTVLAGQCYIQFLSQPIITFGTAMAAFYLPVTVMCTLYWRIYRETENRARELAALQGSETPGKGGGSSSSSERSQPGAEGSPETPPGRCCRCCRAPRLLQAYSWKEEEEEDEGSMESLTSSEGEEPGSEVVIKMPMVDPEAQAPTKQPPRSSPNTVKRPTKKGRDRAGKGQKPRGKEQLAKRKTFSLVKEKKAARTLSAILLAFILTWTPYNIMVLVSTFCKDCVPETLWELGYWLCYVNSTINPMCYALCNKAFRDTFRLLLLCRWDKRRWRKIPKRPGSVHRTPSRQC
Method: Non-specific binding (NSB) was determined in the presence of 1 μM atropine). Reactions were terminated by rapid filtration onto GF/B filter paper (Whatman, Maidstone, UK) and three washes with 3 mL ice-cold 0.9% NaCl using a Brandel harvester (M-24TI; Brandel, Fort Lauderdale, FL). Membrane bound radioactivity was determined by liquid scintillation (Ultima Gold; PerkinElmer) counting.
Data was analyzed using PRISM (GraphPad). For saturation binding, non-specific and total binding data were analyzed to a one site binding model. DPM was converted to fmol/mg to compare across constructs. […] […] The Cheng Prusoff equation was used to estimate pKi ([Cheng and Prusoff, 1973]).

[2] = test system: rats; test: Modified Irwin Functional Observation Battery; type: in vivo; settings: rat
[3] = Modified Irwin Functional Observation Battery; type: in vivo; settings: plasma; rat, 100 mg/kg oral
[4] = test system: C57BL/6J mice; test: Scopolamine-induced deficit in contextual fear conditioning; type: in vivo, mouse; settings: mice, 10, 30 or 100 mg/kg i.p. with scopolamine 1.5 mg/kg i.p.
Method: C57BL/6J male mice (aged 8−12 weeks) were acclimatized to the behavioral testing suite at least 2 hours prior to the test. […] Mice were placed in the conditioning chamber (ANY-maze Fear Conditioning System; Stoelting, Dublin, Ireland); after a 2-min adaptation period, they received three tone/foot shock pairings where the foot shock (un-conditioned stimulus; 2 s; 0.4 mA) always co-terminated with a tone (conditioned stimulus; 2.8 kH; 85 dB; 30 s). The conditioned stimulus−unconditioned stimulus pairings were separated by 1-min intervals. After the mice completed training, they remained in the conditioning chamber for 1 min and were then returned to their home cages. The next day, the mice were placed back in the conditioning chamber, and time spent immobile was recorded for 3 min to assess context-dependent learning. Data were analyzed using ANY-maze software (Stoelting).

[5] = test system: healthy volunteers; test: Clinical EEG/ERP P300 active auditory oddball paradigm; type: in vivo; settings: human multiple dosing, high exposure group, day 9
Method: Routine EEG was performed for all subjects during screening enrolled in the multiple ascending dose study to avoid enrolling subjects showing clinically significant abnormalities. 19-lead EEG recordings were employed for quantitative (qEEG) analyses. qEEGs were are recorded in resting state with alternating 30 s eyes open and 30 s eyes closed for 5 min first and then about 5 min eyes closed. The P50 protocol employed a series of “click pairs.” The interval between click pairs is at random between 6 to 10 s (Stimuli S1 and S2, 1000 Hz, duration 3 ms, 80 dB sound pressure level [SPL], stimulus onset asynchrony [SOA] = 500 ms, The MMN protocol used twelve different frequencies ranging in 50 Hz steps from 700 to 1250 Hz delivered binaurally via special headphones or earphones. All stimuli were presented with a constant SOA of 300 ms in a pseudo-randomized order assuming a frequency deviation of one train to another of at least 100 Hz with three different lengths/durations of series which occurred evenly. For the P300 active auditory oddball paradigm sinusoidal tones of 90 dB SPL intensity and 50 ms duration were delivered binaurally in an inter-stimulus-interval of 1000 msec. The standard stimulus, a low frequency tone (1000 Hz) appeared with a frequency of 85%. […]

[6] = target: T1, human M1 receptor; test: M1-receptor functional agonist assays (pERK1/2 and calcium mobilisation) for hits and SAR; type: cell-based
[7] = target: T1, human M1 receptor; test: Inositol phosphate (IP1) accumulation in CHO Flp-In cells; type: cell-based
[8] = test system: rats; test: Safety pharmacology and toxicology clinical signs, rat; type: in vivo
Excerpt: The rat and dog were appropriate species in which to conduct nonclinical safety evaluation and HTL9936. Male and female rates of the RccHan: WIST strain were obtained from Harlan, Bicester, UK. and the animals were approximately seven to eight weeks old at the start of dosing. Throughout the study the animals had access ad libitum to SQC Rat and Mouse Maintenance Diet No 1, Expanded, (Special Diets Services Ltd, Witham, UK). […] The temperature and relative humidity ranges were maintained in the specified ranges of 20 to 24°C and 45 to 65%, respectively.

[9] = Human plasma and CSF pharmacokinetics after single oral dose; type: in vivo; settings: single 54 mg oral dose

For `CCOC(=O)N1CCC[C@H](N2CCC(C(=O)NC3(C)CCC3)CC2)CC1` [HTL9936, ethyl (S)-4-(4-((1-methylcyclobutyl)carbamoyl)piperidin-1-yl)azepane-1-carboxylate], the pKi [1] was 4.70, the “Cu,pl” value ([2]; 100 mg/kg oral) was 11,994 nM and the Seizure-like effects ([2]; oral dosing up to 100 mg/kg) was “complete absence of seizure-like effects”. For the same compound, the Cmax [3] was 6400 ng/mL, the “Effect on scopolamine-induced fear learning deficit” value [4] was “dose-dependent restoration of learning and memory responses” and the “P300 deviant amplitude at electrodes Fz and Cz” value [5] was “significant within- and between-group effects for deviant amplitude”. For the same compound, the pEC50 [6] was 7.49, the pEC50 [7] was 6.20 and the “Cu,pl without cholinergic clinical signs” value [8] was 1,372 nM. For the same compound, the “Plasma exposure without cholinergic clinical signs” value [8] was “up to 732 ng/mL”, the Tmax ([9]; CSF, read-out: Time of maximum concentration in CSF) was 2 to 3 h and the Tmax ([9]; plasma, read-out: Plasma tmax) was ~0.5 h.
